For test [1], the target named is T1, CCK receptor (brain, cerebral cortex) (Cavia porcellus, UniProt H0VZC5).
T1 construct: Cerebral cortex was dissected and used as a receptor source; from tissue; host or cells: guinea pig cerebral cortex membranes (male Hartley)
T1 sequence (H0VZC5 1-426): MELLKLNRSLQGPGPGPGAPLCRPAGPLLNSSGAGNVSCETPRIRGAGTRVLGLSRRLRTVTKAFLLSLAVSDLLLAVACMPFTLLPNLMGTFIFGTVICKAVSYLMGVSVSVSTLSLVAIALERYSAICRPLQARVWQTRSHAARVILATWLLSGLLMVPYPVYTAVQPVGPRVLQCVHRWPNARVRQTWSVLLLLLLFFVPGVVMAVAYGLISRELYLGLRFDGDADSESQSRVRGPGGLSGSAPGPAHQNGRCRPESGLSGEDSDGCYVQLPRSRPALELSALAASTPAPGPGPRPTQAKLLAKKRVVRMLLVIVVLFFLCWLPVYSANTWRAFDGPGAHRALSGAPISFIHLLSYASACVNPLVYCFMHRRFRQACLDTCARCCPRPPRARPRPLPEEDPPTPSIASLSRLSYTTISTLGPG
The test can be described thus: biochemical. The test is classed as binding, Male Hartley guinea pigs. As to conditions: guinea pig cerebral cortex, ^125 I-CCK-33, 25° C., 2 hours. A digest of the protocol:
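Guinea pig cerebral cortex homogenate as receptor source, with radiolabeled CCK-33 in HEPES buffer containing MgCl2, bacitracin, EGTA and 0.4% BSA. Incubation 2 h at 25°C; bound ligand pelleted by centrifugation and gamma-counted.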

Test [2] addresses T2, Gastrin receptor (gastric glands) (Cavia porcellus, UniProt H0VZC5).
T2 construct: The washed guinea pig gastric glands prepared as above were resuspended; from tissue; host or cells: guinea pig gastric mucosal glands (male Hartley)
T2 sequence (H0VZC5 1-426): T1 sequence (H0VZC5 1-426)
The test can be described thus: Gastrin Receptor Binding in Guinea Pig Gastric Glands. Further details: species or system guinea pig (male Hartley). As to conditions: 25° C., 30 minutes.

A further test addresses T3, CCK receptor (pancreas) (Rattus norvegicus, UniProt P30551).
T3 construct: The whole pancreas was dissected free of fat tissue and was homogenized; from tissue; host or cells: rat pancreas membranes (Sprague-Dawley)
T3 sequence (P30551 1-444): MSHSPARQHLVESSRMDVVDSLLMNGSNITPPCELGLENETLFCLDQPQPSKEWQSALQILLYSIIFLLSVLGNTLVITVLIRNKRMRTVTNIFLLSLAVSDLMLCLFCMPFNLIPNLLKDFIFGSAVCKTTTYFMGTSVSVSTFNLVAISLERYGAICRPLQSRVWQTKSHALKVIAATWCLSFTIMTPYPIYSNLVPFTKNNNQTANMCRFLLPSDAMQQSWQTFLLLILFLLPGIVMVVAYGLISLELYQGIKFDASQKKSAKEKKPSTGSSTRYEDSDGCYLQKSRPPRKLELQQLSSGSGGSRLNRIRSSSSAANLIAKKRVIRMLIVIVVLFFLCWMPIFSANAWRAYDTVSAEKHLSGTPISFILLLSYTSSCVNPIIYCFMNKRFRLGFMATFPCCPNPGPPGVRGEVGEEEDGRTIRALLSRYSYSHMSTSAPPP
Briefly: CCK Receptor Binding (Pancreas): inhibition of ^125 I-CCK-33 binding. Further details: species or system Male Sprague-Dawley rats. As to conditions: rat pancreas membranes, ^125 I-CCK-33, 37° C., 30 minutes. A digest of the protocol: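 Rat (male Sprague-Dawley) pancreatic membranes in 50 mM Tris HCl pH 7.7 with DTT, bacitracin, PMSF and o-phenanthroline; ^125I-Bolton Hunter-labelled CCK-33 as radioligand. Incubation 30 min at 37° C, separation by centrifugation, pellet gamma-counted; Scatchard analysis by diluting ^125I-CCK-33 with increasing CCK-33.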

The mark [3] stands for this setting: read-out: IC50 ^125 I-CCK Brain.
Where [4] appears, read: ^125 I-gastrin, read-out: IC50 ^125 I-Gastrin Gastric Glands.
[5] abbreviates: IC50 ^125 I-Gastrin Gastric Glands.
Setting [6] is: read-out: IC50 ^125 I-CCK Pancreas.

Molecules are shown by their SMILES. Like-named read-outs stand apart in the source and are kept apart here.

The text below walks through data of patent US4820834A, “Benzodiazepine analogs” (priority 1987, dated 1989).

What is called IC50 is the concentration at which inhibition is half-maximal. With `CCN(CC)C(=O)CN1C(=O)C(NC(=O)Nc2cccc(OC)c2)N=C(c2ccccc2)c2ccccc21` (stereo not drawn) [Example 285, 3-{[((3-Methoxyphenyl)amino)carbonyl)amino]-N,N-diethyl-2,3-dihydro-2-oxo-5-phenyl-1H-1,4-benzodiazepin-1-acetamide], the IC50 in test [1] (setting [3]) was 0.22 nM; in test [2] (setting [4]), 0.26 nM; on CCK receptor (pancreas) (IC50 ^125 I-CCK Pancreas) it was greater than 100 nM.

As to `CCN(CC)C(=O)CN1C(=O)C(NC(=O)Nc2ccccc2Cl)N=C(c2ccccc2)c2ccccc21` (stereo not drawn) [Example 286, 3-{[((2-Chlorophenyl)amino)carbonyl]amino}-N,N-diethyl-2,3-dihydro-2-oxo-5-phenyl-1H-1,4-benzodiazepine-1-acetamide], the IC50 in test [1] (setting [3]) is 3.8 nM; in test [2] (setting [4]) it was 1.5 nM; at CCK receptor (pancreas) (IC50 ^125 I-CCK Pancreas) it was greater than 100 nM.

For the compound `Cc1cccc2c1NC(=O)C(NC(=O)c1cc3ccccc3[nH]1)N=C2c1ccccc1` (stereo not drawn) [Example 287, 3-N-(2,3-Dihydro-9-methyl-2-oxo-5-phenyl-1H-1,4-benzodiazeoin-3-yl)-1H-indole-2-carboxamide], the figures for the IC50 (in test [1] (setting [3]); in test [2] (setting [4]); at CCK receptor (pancreas) (IC50 ^125 I-CCK Pancreas)) were 1000 nM, 950 nM and 0.74 nM, respectively.

For `COc1cccc(NC(=O)NC2N=C(c3ccccc3)c3cccc(C)c3NC2=O)c1` (stereo not drawn) [Example 288, N-(3-Methoxyphenyl)-N'-(2,3-dihydro-9-methyl-2-oxo-5-phenyl-1H-1,4-benzodiazepin-3-yl)-urea], the figures for the IC50 (in test [1] (setting [3]); in test [2] (setting [4]); at CCK receptor (pancreas) (IC50 ^125 I-CCK Pancreas)) were 42 nM, 54 nM and 75 nM, respectively.

Consider `Cc1cccc2c1N(C)C(=O)C(NC(=O)c1cc3ccccc3[nH]1)N=C2c1ccccc1` (stereo not drawn) [Example 289, 3-N-(2,3-Dihydro-1,9-dimethyl-2-oxo-5-phenyl-1H-1,4-benzodiazepin-3-yl)-1H-indole-2-carboxamide], for which the IC50 in test [1] (setting [3]) is 89 nM; in test [2] (setting [4]), 660 nM; on CCK receptor (pancreas) (IC50 ^125 I-CCK Pancreas) it was 0.1 nM.

As to `COc1cccc(NC(=O)NC2N=C(c3ccccc3)c3cccc(C)c3N(C)C2=O)c1` (stereo not drawn) [Example 290, N-(3-Methoxyphenyl)-N'-(2,3-dihydro-1,9-dimethyl-2-oxo-5-phenyl-1H-1,4-benzodiazepin-3-yl)-urea], the IC50 was 15 nM in test [1] (setting [3]), 8.7 nM in test [2] (setting [4]) and 2 nM at CCK receptor (pancreas) (IC50 ^125 I-CCK Pancreas).

Turning to `Cc1ccc(C2=NC(NC(=O)c3cc4ccccc4[nH]3)C(=O)N(C)c3ccccc32)cc1` (stereo not drawn) [Example 291, 3-N-(2,3-Dihydro-1-methyl-2-oxo-5-(p-tolyl)-1H-1,4-benzodiazepin-3-yl)-1H-indole-2-carboxamide], the figures for the IC50 (in test [1] (setting [3]); in test [2] (setting [4]); on CCK receptor (pancreas) (IC50 ^125 I-CCK Pancreas)) were 380 nM, 710 nM and 0.08 nM, respectively.

For `COc1cccc(NC(=O)NC2N=C(c3ccc(C)cc3)c3ccccc3N(C)C2=O)c1` (stereo not drawn) [Example 292, N-(3-Methoxyphenyl)-N'-(2,3-dihydro-1-methyl-2-oxo-5-(p-tolyl)-1H-1,4-benzodiazepin-3-yl)-urea], the IC50 in test [1] (setting [3]) stood at 3.5 nM; in test [2] (setting [4]) it was 11.5 nM; at CCK receptor (pancreas) (IC50 ^125 I-CCK Pancreas), 1 nM.

In the case of `Cc1ccc(NC(=O)N[C@@H]2N=C(c3ccccc3)c3ccccc3N(C)C2=O)cc1` [Example 293, (R)-N-(2,3-Dihydro-1-methyl-2-oxo-5-phenyl-1H-1,4-benzodiazepin-3-yl)-N'-(4-methylphenyl)-urea], the IC50 in test [1] (IC50 ^125 I-CCK Brain) amounted to 6.5 nM; in test [2] (setting [5]), 2.5 nM; on CCK receptor (pancreas) (setting [6]) it was 3100 nM.

Consider `Cc1ccc2c(c1)N(C)C(=O)C(NC(=O)c1cc3ccccc3[nH]1)N=C2c1ccccc1` (stereo not drawn) [Example 294, 3-N-(2,3-Dihydro-1,8-dimethyl-2-oxo-5-phenyl-1H-1,4-benzodiazepin-3-yl)-1H-indole-2-carboxamide], for which the IC50 was 38 nM in test [1] (setting [3]), 40 nM in test [2] (setting [4]) and 0.1 nM on CCK receptor (pancreas) (IC50 ^125 I-CCK Pancreas).

Regarding `COc1cccc(NC(=O)NC2N=C(c3ccccc3)c3ccc(C)cc3N(C)C2=O)c1` (stereo not drawn) [Example 295, N-(3-Methoxyphenyl)-N'-(2,3-dihydro-1,8-dimethyl-2-oxo-5-phenyl-1H-1,4-benzodiazepin-3-yl)-urea], the IC50 was determined as 15 nM in test [1] (setting [3]), 34 nM in test [2] (setting [4]) and 3 nM at CCK receptor (pancreas) (IC50 ^125 I-CCK Pancreas).

On to `CN1C(=O)[C@H](NC(=O)Nc2cccc(Cl)c2)N=C(c2ccccc2)c2ccccc21` [Example 296, (R)-N-(2,3-Dihydro-1-methyl-2-oxo-5-phenyl-1H-1,4-benzodiazepin-3-yl)-N'-(3-chloroohenyl)-urea], for which the values for the IC50 (in test [1] (IC50 ^125 I-CCK Brain); in test [2] (setting [5]); at CCK receptor (pancreas) (setting [6])) were 7.5 nM, 2.2 nM and 290 nM, respectively.

Turning to `CN1C(=O)C(CC(=O)Nc2ccc(Cl)cc2)N=C(c2ccccc2)c2ccccc21` (stereo not drawn) [Example 297, N-(4-Chlorophenyl)-2,3-dihydro-1-methyl-2-oxo-5-phenyl-1H-1,4-benzodiazepine-3-acetamide], the IC50 stood at 3700 nM in test [1] (setting [3]), 5200 nM in test [2] (setting [4]) and 1800 nM on CCK receptor (pancreas) (IC50 ^125 I-CCK Pancreas).
